Where a name gives a salt, the structure may show the parent alone.
Assays:
BRD4-BD1 = BRD4-BD1 (Homo sapiens (Human), UniProt O60885); assay: BRD4 AlphaScreen Assay (Example A2), BRD4-BD1; format: binding; details: Assay A2, AlphaScreen, BRD4-BD1; read-out: BRD4 BD-1 enzyme IC50
Description: (§1) BRD4-BD1 and BRD4-BD2 assays were conducted in white 384-well polystyrene plate in a final volume of 40 μL for BD1 and 60 μL for BD2. Inhibitors were first serially diluted in DMSO and added to the plate wells before the addition of other reaction components. […] The assays were carried out at room temperature in the assay buffer (50 mM Tris-HCl, pH 7.5, 0.01% Tween-20, 0.01% BSA, 5 mM DTT), containing 50 nM Biotin-labeled tetra-acetylated histone H4 peptide (H4Ac4) and BRD4-BD1 or BRD4-BD2 protein at concentration less than 1 nM. […] After plate sealing, the plate was incubated in the dark at room temperature for 75 min. before reading on a PHERAstar FS plate reader (BMG Labtech). IC50 determination was performed by fitting the curve of percent control activity versus the log of the inhibitor concentration using the GraphPad Prism 5.0 software.

BRD4-BD2 = BRD4-BD2 (Homo sapiens (Human), UniProt O60885); assay: BRD4 AlphaScreen Assay (Example A2), BRD4-BD2; format: binding; details: Assay A2, AlphaScreen, BRD4-BD2; read-out: BRD4 BD-2 enzyme IC50
Description: as §1

Structure (SMILES)	IC50 (BRD4-BD1)	IC50 (BRD4-BD2)
Cc1noc(C)c1-c1ccc2nc(C3CCN(S(C)(=O)=O)CC3)n3c2c1OC[C@@H]3c1ccccn1 [Example 112, (4S)-7-(3,5-dimethylisoxazol-4-yl)-2-[1-(methylsulfonyl)piperidin-4-yl]-4-pyridin-2-yl-4,5-dihydroimidazo[1,5,4-de][1,4]benzoxazine]	< 0.1 µM	< 0.1 µM
Cc1noc(C)c1-c1ccc2nc(N3CC[C@@H](NC(=O)N4CCOCC4)C3)n3c2c1OC[C@@H]3c1ccccn1 [Example 153, N-{(3R)-1-[(4S)-7-(3,5-Dimethylisoxazol-4-yl)-4-pyridin-2-yl-4,5-dihydroimidazo[1,5,4-de][1,4]benzoxazin-2-yl]pyrrolidin-3-yl}morpholine-4-carboxamide]	< 0.1 µM	< 0.1 µM
CC(=O)N1CCC(c2nc3ccc(-c4c(C)noc4C)c4c3n2[C@@H](c2ccccn2)CO4)C1 (single isomer, unassigned; diastereomer 1) [Example 113A]	< 0.1 µM	< 0.1 µM
Cc1noc(C)c1-c1ccc2ncn3c2c1OC[C@@H]3c1ccccn1 [Example 92, (4S)-7-(3,5-Dimethylisoxazol-4-yl)-4-pyridin-2-yl-4,5-dihydroimidazo[1,5,4-de][1,4]benzoxazine]	< 0.1 µM	< 0.1 µM
COc1ccc(CNCc2cc(-c3c(C)noc3C)c3c4c2[nH]c(=O)n4C(c2ccccn2)CO3)cc1 (centres unmarked) [Example 263, 7-(3,5-dimethylisoxazol-4-yl)-9-{[(4-methoxybenzyl)amino]methyl}-4-pyridin-2-yl-4,5-dihydroimidazo[1,5,4-de][1,4]benzoxazin-2(1H)-one]	0.1 to 1 µM	< 0.1 µM
Cc1noc(C)c1-c1ccc2[nH]c(=O)n3c2c1OCC3(C(N)=O)c1ccccn1 (centres unmarked) [Example 74, 7-(3,5-Dimethylisoxazol-4-yl)-2-oxo-4-pyridin-2-yl-1,2,4,5-tetrahydroimidazo[1,5,4-de][1,4]benzoxazine-4-carboxamide 2,2,2-trifluoroacetate]	0.1 to 1 µM	< 0.1 µM
Cc1noc(C)c1-c1cc(Br)c2[nH]c(=O)n3c2c1OCC3c1ccccn1 (single isomer, unassigned) [Example 267B, 9-bromo-7-(3,5-dimethylisoxazol-4-yl)-4-pyridin-2-yl-4,5-dihydroimidazo[1,5,4-de][1,4]benzoxazin-2(1H)-one]	< 0.1 µM	< 0.1 µM
Cc1noc(C)c1-c1cc(Br)c2[nH]c(=O)n3c2c1OCC3c1ccccc1 (centres unmarked) [Example 45, 9-Bromo-7-(3,5-Dimethylisoxazol-4-yl)-4-phenyl-4,5-dihydroimidazo[1,5,4-de][1,4]benzoxazin-2(1H)-one]	< 0.1 µM	< 0.1 µM
Cc1noc(CO)c1-c1ccc2[nH]c(=O)n3c2c1OCC3c1ccccn1 (racemic) [Example 124, 7-[5-(Hydroxymethyl)-3-methylisoxazol-4-yl]-4-pyridin-2-yl-4,5-dihydroimidazo[1,5,4-de][1,4]benzoxazin-2(1H)-one]	1 to 10 µM	0.1 to 1 µM
Cc1noc(C)c1-c1ccc2nc(C(=O)N(C)C)n3c2c1OC[C@@H]3c1ccccn1 [Example 91, (4S)-7-(3,5-Dimethylisoxazol-4-yl)-N,N-dimethyl-4-pyridin-2-yl-4,5-dihydroimidazo[1,5,4-de][1,4]benzoxazine-2-carboxamide]	< 0.1 µM	< 0.1 µM
CCOC(=O)/C=C/c1cc(-c2c(C)noc2C)c2c3c1[nH]c(=O)n3[C@@H](c1ccccn1)CO2 [Example 86, ethyl (2E)-3-[(4S)-7-(3,5-dimethylisoxazol-4-yl)-2-oxo-4-pyridin-2-yl-1,2,4,5-tetrahydroimidazo[1,5,4-de][1,4]benzoxazin-9-yl]acrylate 2,2,2-trifluoroacetate]	0.1 to 1 µM	< 0.1 µM
CC(=O)N1CCCN(c2nc3ccc(-c4c(C)noc4C)c4c3n2[C@@H](c2ccccn2)CO4)CC1 [Example 148, (4S)-2-(4-Acetyl-1,4-diazepan-1-yl)-7-(3,5-dimethylisoxazol-4-yl)-4-pyridin-2-yl-4,5-dihydroimidazo[1,5,4-de][1,4]benzoxazine]	< 0.1 µM	< 0.1 µM
Cc1noc(C)c1-c1ccc2[nH]c(=S)n3c2c1OCC3c1ccccn1 (centres unmarked) [Example 255, 7-(3,5-Dimethylisoxazol-4-yl)-4-pyridin-2-yl-4,5-dihydroimidazo[1,5,4-de][1,4]benzoxazine-2(1H)-thione]	< 0.1 µM	< 0.1 µM
Cc1noc(C)c1-c1cc(CNC(=O)CN(C)C)c2[nH]c(=O)n3c2c1OC[C@@H]3c1ccccn1 [Example 143, 2-(Dimethylamino)-N-{[(4S)-7-(3,5-dimethylisoxazol-4-yl)-2-oxo-4-pyridin-2-yl-1,2,4,5-tetrahydroimidazo[1,5,4-de][1,4]benzoxazin-9-yl]methyl}acetamide]	0.1 to 1 µM	< 0.1 µM
CNC(=O)C1Oc2c(-c3c(C)noc3C)ccc3[nH]c(=O)n(c23)C1c1ccccn1 (centres unmarked) [Example 76, 7-(3,5-dimethylisoxazol-4-yl)-N-methyl-2-oxo-4-pyridin-2-yl-1,2,4,5-tetrahydroimidazo[1,5,4-de][1,4]benzoxazine-5-carboxamide 2,2,2-trifluoroacetate]	0.1 to 1 µM	0.1 to 1 µM
Cc1noc(C)c1-c1cc(-c2ccnc(O)c2)c2[nH]c(=O)n3c2c1OC[C@@H]3c1ccccn1 [Example 260, (4S)-7-(3,5-dimethylisoxazol-4-yl)-9-(2-hydroxypyridin-4-yl)-4-pyridin-2-yl-4,5-dihydroimidazo[1,5,4-de][1,4]benzoxazin-2(1H)-one]	0.1 to 1 µM	< 0.1 µM
COC(=O)c1ncccc1C1COc2c(-c3c(C)noc3C)ccc3[nH]c(=O)n1c23 (racemic) [Example 132, Methyl 3-[7-(3,5-dimethylisoxazol-4-yl)-2-oxo-1,2,4,5-tetrahydroimidazo[1,5,4-de][1,4]benzoxazin-4-yl]pyridine-2-carboxylate]	< 0.1 µM	< 0.1 µM
Cc1noc(C)c1-c1ccc2[nH]c(=O)n3c2c1OC(C(N)=O)C3c1ccccn1 (centres unmarked) [Example 77, 7-(3,5-dimethylisoxazol-4-yl)-2-oxo-4-pyridin-2-yl-1,2,4,5-tetrahydroimidazo[1,5,4-de][1,4]benzoxazine-5-carboxamide 2,2,2-trifluoroacetate]	0.1 to 1 µM	0.1 to 1 µM
Cc1noc(C)c1-c1ccc2[nH]c(=O)n3c2c1CCC3c1ccccn1 (centres unmarked) [Example 123, 7-(3,5-Dimethylisoxazol-4-yl)-4-pyridin-2-yl-5,6-dihydro-4H-imidazo[4,5,1-ij]quinolin-2(1H)-one trifluoroacetate]	0.1 to 1 µM	< 0.1 µM
CC(=O)N1CCC(c2nc3ccc(-c4c(C)noc4C)c4c3n2[C@@H](c2ccccn2)CO4)C1 (single isomer, unassigned; diastereomer 2) [Example 113B]	< 0.1 µM	< 0.1 µM
Cc1noc(C)c1-c1cc(C#N)c2[nH]c(=O)n3c2c1OCC3c1ccccn1 (centres unmarked) [Example 269B, 7-(3,5-dimethylisoxazol-4-yl)-2-oxo-4-pyridin-2-yl-1,2,4,5-tetrahydroimidazo[1,5,4-de][1,4]benzoxazine-9-carbonitrile]	1 to 10 µM	1 to 10 µM
Cc1noc(C)c1-c1ccc2nc([C@@H](O)CO)n3c2c1OC[C@@H]3c1ccccn1 [Example 89, (1R)-1-[(4S)-7-(3,5-Dimethylisoxazol-4-yl)-4-pyridin-2-yl-4,5-dihydroimidazo[1,5,4-de][1,4]benzoxazin-2-yl]ethane-1,2-diol]	< 0.1 µM	< 0.1 µM
Cc1noc(C)c1-c1ccc2nc(N3CC(NC(=O)OC(C)(C)C)C3)n3c2c1OC[C@@H]3c1ccccn1 [Example 196, tert-butyl {1-[(4S)-7-(3,5-dimethylisoxazol-4-yl)-4-pyridin-2-yl-4,5-dihydroimidazo[1,5,4-de][1,4]benzoxazin-2-yl]azetidin-3-yl}carbamate]	< 0.1 µM	< 0.1 µM
Cc1noc(C)c1-c1ccc2nc(C3CCN(C(=O)C4CC4)C3)n3c2c1OC[C@@H]3c1ccccn1 (single isomer, unassigned; diastereomer 1) [Example 114A]	< 0.1 µM	< 0.1 µM
Cc1noc(C)c1-c1ccc2[nH]c(=O)n3c2c1OCC3(CN)c1ccccn1 (centres unmarked) [Example 73, 4-(Aminomethyl)-7-(3,5-dimethylisoxazol-4-yl)-4-pyridin-2-yl-4,5-dihydroimidazo[1,5,4-de][1,4]benzoxazin-2(1H)-one bis(2,2,2-trifluoroacetate)]	0.1 to 1 µM	< 0.1 µM
Cc1noc(C)c1-c1ccc2nc(N3CC(O)C3)n3c2c1OCC3c1cccnc1 (single isomer, unassigned) [Example 160A, 1-[7-(3,5-Dimethylisoxazol-4-yl)-4-pyridin-3-yl-4,5-dihydroimidazo[1,5,4-de][1,4]benzoxazin-2-yl]azetidin-3-ol]	1 to 10 µM	0.1 to 1 µM
Cc1noc(C)c1-c1cc(C(C)O)c2[nH]c(=O)n3c2c1OC[C@@H]3c1ccccn1 (single isomer, unassigned) [Example 144B]	0.1 to 1 µM	< 0.1 µM
Cc1cnn(C)c1-c1ccc2[nH]c(=O)n3c2c1OCC3c1ccccn1 (centres unmarked) [Example 44, 7-(1,4-Dimethyl-1H-pyrazol-5-yl)-4-pyridin-2-yl-4,5-dihydroimidazo[1,5,4-de][1,4]benzoxazin-2(1H)-one]	1 to 10 µM	0.1 to 1 µM
